Test results: patent publication US20140357654A1, “METHODS OF TREATING SCHIZOPHRENIA WITH PHENYLALANINE ENAMIDE DERIVATIVE INHIBITORS OF a4 INTEGRIN POSSESSING A CYCLOBUTENE GROUP” (AESTUS THERAPEUTICS, INC., priority 2011, published 2014)

System: Male Sprague-Dawley rats
Experiment: Reversal of PCP-induced deficit in prepulse inhibition of the acoustic startle response (PPI)
Type: in vivo, rat
Conditions: for reversal of PCP-induced deficit in PPI, percent PPI averaged for all three prepulse intensities: average of 69, 73 and 81 dB, FIG. 2; for reversal of PCP-induced deficit in PPI, percent PPI averaged for all three prepulse intensities / reversal of PCP-induced deficit in PPI: 50 mg/kg p.o., adult male rats; for effect on pre-pulse inhibition: 10 and 50 mg/kg p.o. 45 min before PCP 2.5 mg/kg i.p.; for reversal of PCP-induced deficit in PPI: prepulse intensity 73 dB, FIG. 1
Protocol: Male Sprague-Dawley rats weighing 210-250 g at time of experiment were used. Animals were housed in a temperature and humidity controlled environment and allowed free access to food and water prior to use.
The amplitude of the inherent startle response varies considerably from animal to animal. The gain of the platforms must be calibrated to ensure that the average startle waveform falls within the desired range. To this end, baseline studies were conducted before the full PPI protocol to allow the calibration of the platforms to be fine-tuned to the startle waveform amplitude. This also allows the animals to become acclimatised to the testing equipment prior to drug administration.
Animals were placed in restraining holders and transferred to the designated chamber. Once all holders were securely fastened to the platform, the Baseline protocol was started. This consists of: • Acclimation Period: Animals were exposed to 5 minutes of 65 decibel (dB) background noise (white noise). • Block 1: 10× startle stimulus alone (white noise, 120 dB, 40 ms) • Block 2: 6× startle stimulus alone • 6× pre-pulse plus startle stimulus (pure tone, 16 dB above background noise, • 20 ms) followed 100 ms later by the startle stimulus. • During this time, the amplitude of the startle responses was recorded. On completion of this protocol, the sensitivity of the equipment was re-calibrated where necessary by adjusting the gain settings.
The same group of rats was again subjected to the Baseline protocol described above. Again, on completion of this protocol, the sensitivity of the equipment was re-calibrated where necessary by adjusting the gain settings. […] These animals were then returned to their home cages for subsequent dosing with compound.
The study compounds were suspended from dry powder stocks in Vehicle (5% Tween 80/5% PEG/saline) and sonicated for 60 minutes at 37° C. to generate suspensions suitable for oral dosing. Control rats received Vehicle by oral gavage. PCP was dissolved in sterile saline (0.9% NaCl).
Rats were dosed with either saline (0.9% NaCl) or 2.5 mg/kg PCP by intraperitoneal injection 15 minutes prior to PPI testing.
(2 S)-2-(2-Bromo-3-oxo-spiro[3.5]non-1-en-1-ylamino)-3-[4-([2,7]naphthyridin-1-ylamino)phenyl]proprionic acid or Clozapine was administered orally by gavage 45 minutes before challenge with PCP or saline. (2S)-2-(2-Bromo-3-oxo-spiro[3.5]non-1-en-1-ylamino)-3-[4-([2,7]naphthyridin-1-ylamino)phenyl]proprionic acid was administered at 10 mg/kg and 50 mg/kg. Clozapine was administered at 5 mg/kg. Vehicle control rats received Vehicle (5% Tween 80/5% PEG/saline) by oral gavage 45 minutes before challenge with PCP or saline.
Exactly 15 minutes after the injection of PCP or saline, the full PPI protocol was started. Animals were exposed to 5 minutes of 65 dB background noise (white noise) as an acclimation period, before the acoustic stimuli began. • Block 1: 6× startle stimulus alone (white noise, 120 dB, 40 ms) • Block 2: 14× startle stimulus • 8× no pulse • 30× pre-pulse (10 each of 4, 8, and 16 dB above the background noise) followed 100 ms later by the startle stimulus. This corresponds to intensities of 69, 73 and 81 dB, respectively. A total of 52 trials were presented to the animals in this block in a pseudo-random order with a variable interval of 8 to 23 seconds, averaging 15 s between trials). • Block 3: 6× startle stimulus alone
Pre-pulse inhibition was calculated from trials in Block 2 by the following formula:
% PPI=(100×[(pulse alone score)−(prepulse+pulse score)]/pulse alone

## O=C(O)[C@H](Cc1ccc(Nc2nccc3ccncc23)cc1)NC1=C(Br)C(=O)C12CCCCC2 [(2S)-2-(2-Bromo-3-oxo-spiro[3.5]non-1-en-1-ylamino)-3-[4-([2,7]naphthyridin-1-ylamino)phenyl]proprionic acid]
50 mg/kg
  reversal of PCP-induced deficit in PPI, percent PPI averaged for all three prepulse intensities: reversal
  reversal of PCP-induced deficit in PPI: reversal
Listed as MGCD-0103, 50 mg/kg
  reversal of PCP-induced deficit in PPI, percent PPI averaged for all three prepulse intensities: significantly (p<0.05) reversed
  reversal of PCP-induced deficit in PPI: significantly (p<0.05) reversed
Prepulse intensity 69 dB (4 dB above background), rats
  effect on pre-pulse inhibition: did not have a statistically significant effect
Prepulse intensity 73 dB (8 dB above background), dose not specified (10 and 50 mg/kg p.o. tested), rats
  ability to attenuate the PCP-induced deficit in PPI: more evident
Prepulse intensity 81 dB (16 dB above background), rats
  effect on pre-pulse inhibition: did not have a statistically significant effect
